Assay results: patent US5057512A, “3-amino-2-oxo-azetidine-1-sulfonic acids” (Uclaf; Roussel, priority 1981, dated 1991)

Legend:
Experiment in all cases: M.I.C., dilutions in liquid medium
Type in all cases: cell-based
Enterobacter Cloacae 681 = conditions: 37° C.
Method: (§1) A. Activity in Vitro-Method of Dilutions in Liquid Medium
(§2) A series of tubes was prepared in which the same amount of sterile nutritive medium was distributed and there was distributed in each tube increasing amounts of the test product. Then, each tube was inoculated with a bacterial strain and after incubation for twenty-four or forty-eight hours in an oven at 37° C., the inhibition of the growth was evaluated by trans-illumination to determine the minimum inhibiting concentrations (M.I.C.), expressed in μg/ml.

[1] = tested on: Escherichia Coli Resistant to Gentamycine Tobramycine R55 123 D; conditions: 37° C.
Method: as §1, §2

[2] = tested on: Escherichia Coli Resistant to Tetracycline AT CC 11 303; conditions: 37° C.
Method: as §1, §2

[3] = tested on: Escherichia Coli Sensitive to Tetracycline 7624; conditions: 37° C.
Method: as §1, §2

[4] = tested on: Klebsiella Pneumoniae 2536 Resistant Gentamycine; conditions: 37° C.
Method: as §1, §2

[5] = tested on: Klebsiella Pneumoniae Exp. 52145; conditions: 37° C.; for MIC: Klebsiella pneumoniae; for M.I.C.: 24 Hr.
Method: as §1, §2

[6] = tested on: Proteus mirabilis (indol -) A 235; conditions: 37° C.; for MIC: Proteus mirabilis
Method: as §1, §2

[7] = tested on: Proteus vulgaris (indol +) A 232; conditions: 37° C.; for MIC: Proteus vulgaris
Method: as §1, §2

Providencia Du 48 = conditions: 37° C.; for MIC: Providencia, DU48
Method: as §1, §2

[8] = tested on: Salmonella typhimurium 420; conditions: Salmonella enterica, 37° C.
Method: as §1, §2

[9] = tested on: Serratia Resistant to Gentamycine 2 532; conditions: 37° C.; for MIC: Serratia; for M.I.C.: 24 Hr.
Method: as §1, §2

[10] = tested on: Enterobacter cloacae 1321 E; conditions: 37° C.; for MIC: Enterobacter cloacae, 1321E
Method: as §1, §2

Escherichia coli 0 78 = conditions: 37° C.
Method: as §1, §2

Escherichia coli 1507 E = conditions: 37° C.; for MIC: Escherichia coli, 1507E
Method: as §1, §2

Escherichia coli DC 0 = conditions: 37° C.; for MIC: Escherichia coli
Method: as §1, §2

Escherichia coli DC 2 = conditions: 37° C.; for MIC: Escherichia coli, DC2
Method: as §1, §2

Escherichia coli T E M = conditions: 37° C.; for MIC: Escherichia coli
Method: as §1, §2

Escherichia coli UC 1894 = conditions: 37° C.; for MIC: Escherichia coli, UC1894
Method: as §1, §2

[11] = tested on: Klebsiella aerogenes 1522 E; conditions: 37° C.; for MIC: Klebsiella aerogenes, 1522E
Method: as §1, §2

[12] = tested on: Salmonella typhimurium MZ 11; conditions: 37° C.; for MIC: Salmonella enterica, TYPHIMURIUM
Method: as §1, §2

[13] = tested on: Klebsiella aerogenes 1082 E; conditions: 37° C.; for MIC: Klebsiella aerogenes, 1082E
Method: as §1, §2

[14] = tested on: Pseudomonas aeruginosa 1771 m; conditions: 37° C.; for MIC: Pseudomonas aeruginosa, 1771M
Method: as §1, §2

[15] = Escherichia coli, 078, 24 h, 24 H
[16] = Escherichia coli, 078, 48 h, 48 H

CON=C(C(=O)NC1C(=O)N(S(=O)(=O)O)C1CCl)c1csc(N)n1 (mixture of isomers) [Example 1, Racemate of syn isomer of cis 4-chloromethyl-3-[2-(2-amino-4-thiazolyl)-2-methoxyimino-acetamido]-2-oxoazetidine-1-sulfonic acid]
0.62 µg/mL: MIC ([1]; 24 Hr.) | MIC ([1]; 48 Hr.) | MIC (Providencia Du 48; 24 Hr.) | MIC (Providencia Du 48; 48 Hr.)
0.16 µg/mL: MIC ([2]; 24 Hr.) | MIC ([2]; 48 Hr.) | MIC ([6]; 24 h) | MIC ([6]; 48 h)
1.25 µg/mL: MIC ([3]; 24 Hr.) | MIC ([3]; 48 Hr.) | MIC ([5]; 24 h) | MIC ([8]; 24 Hr.) | MIC ([8]; 48 Hr.)
0.08 µg/mL: MIC ([7]; 24 Hr.) | MIC ([7]; 48 Hr.)
5 µg/mL: MIC ([9]; 24 h) | MIC ([9]; 48 h)
2.5 µg/mL: MIC (Enterobacter Cloacae 681; CLOACAE681, 24 Hr.) | MIC (Enterobacter Cloacae 681; CLOACAE681, 48 Hr.) | MIC ([4]; 24 Hr.) | MIC ([4]; 48 Hr.) | MIC ([5]; 48 h)

Nc1nc(C(=NOC(F)F)C(=O)NC2C(=O)N(S(=O)(=O)O)C2CF)cs1 (mixture of isomers) [Example 8, Racemate of the syn isomer of cis 4-fluoromethyl-3-[2-(2-amino-4-thiazolyl)-2-difluoromethoxyimino-acetamido]-2-oxo-azetidine-1-sulfonic acid]
≤ 0.08 µg/mL: MIC (Escherichia coli UC 1894; 48 H)
0.6 µg/mL: MIC ([9]; 24 h) | MIC ([9]; 48 h)
0.15 µg/mL: MIC (Escherichia coli T E M; 24 h) | MIC (Escherichia coli T E M; 48 h)
≤ 0.04 µg/mL: MIC (Escherichia coli 1507 E; 24 h) | MIC (Escherichia coli 1507 E; 48 h) | MIC (Escherichia coli DC 2; 24 H) | MIC (Escherichia coli DC 2; 48 H) | MIC (Escherichia coli UC 1894; 24 H) | MIC ([6]; 24 h) | MIC ([6]; 48 h) | MIC ([7]; 24 Hr.) | MIC ([7]; 48 Hr.)
0.3 µg/mL: MIC ([5]; 24 h) | MIC ([5]; 48 h) | MIC (Providencia Du 48; 24 Hr.) | MIC (Providencia Du 48; 48 Hr.)
0.08 µg/mL: MIC ([10]; 24 H) | MIC ([10]; 48 H) | MIC (Escherichia coli 0 78; [15]) | MIC (Escherichia coli 0 78; [16]) | MIC (Escherichia coli DC 0; DC0, 24 h, 24 H) | MIC (Escherichia coli DC 0; DC0, 48 h, 48 H) | MIC ([11]; 24 h) | MIC ([11]; 48 h) | MIC ([12]; 24 h) | MIC ([12]; 48 h)

CON=C(C(=O)NC1C(=O)N(S(=O)(=O)O)C1CF)c1csc(N)n1 [Example 11, (3S,4S)ΔZ 4-fluoromethyl-3-[2-(2-amino-4-thiazolyl)-2-methoxyimino-acetamido]-2-oxo-azetidine-1-sulfonic acid]
0.08 µg/mL: M.I.C. ([10]; 24 H) | M.I.C. (Escherichia coli 0 78; 24 H) | M.I.C. (Escherichia coli 1507 E; 24 H) | M.I.C. (Escherichia coli T E M; 24 H) | M.I.C. [5] | M.I.C. ([11]; 24 H)
0.3 µg/mL: M.I.C. (Providencia Du 48; 24 Hr.)
≤ 0.04 µg/mL: M.I.C. (Escherichia coli UC 1894; 24 H) | M.I.C. ([7]; 24 Hr.) | M.I.C. ([12]; 24 H)
0.15 µg/mL: M.I.C. (Escherichia coli DC 0; 24 H) | M.I.C. (Escherichia coli DC 2; 24 H) | M.I.C. ([6]; 24 Hr.)
0.6 µg/mL: M.I.C. ([14]; 24 H)
10 µg/mL: M.I.C. ([13]; 24 H)
2.5 µg/mL: M.I.C. [9]

NCCON=C(C(=O)NC1C(=O)N(S(=O)(=O)O)C1CCl)c1csc(N)n1 (mixture of isomers) [Example 3, Racemate of syn isomer of cis 4-chloromethyl-3[2(2-amino-4-thiazolyl)-2-(2-aminoethoxy)-imino-acetamido]-2-oxo-azetidine-1-sulfonic acid]
1.2 µg/mL: MIC ([1]; 24 Hr.) | MIC ([1]; 48 Hr.) | MIC ([3]; 24 Hr.) | MIC ([3]; 48 Hr.) | MIC ([7]; 24 Hr.) | MIC ([7]; 48 Hr.)
10 µg/mL: MIC ([5]; 48 h)
2.5 µg/mL: MIC ([4]; 24 Hr.) | MIC ([4]; 48 Hr.) | MIC (Providencia Du 48; 24 Hr.) | MIC (Providencia Du 48; 48 Hr.) | MIC ([8]; 24 Hr.) | MIC ([9]; 24 h)
0.6 µg/mL: MIC ([2]; 24 Hr.) | MIC ([2]; 48 Hr.) | MIC ([6]; 24 h) | MIC ([6]; 48 h)
5 µg/mL: MIC ([5]; 24 h) | MIC ([8]; 48 Hr.) | MIC ([9]; 48 h)

CON=C(C(=O)NC1C(=O)N(S(=O)(=O)O)C1CF)c1csc(N)n1 (mixture of isomers) [Example 5, Racemate of syn isomer of cis 4-fluoromethyl-3-[2-(2-amino-4-thiazolyl)-2-methoxyimino-acetamido]-2-oxo-azetidine-1-sulfonic acid]
0.6 µg/mL: MIC ([14]; 24 H)
≤ 0.04 µg/mL: MIC (Escherichia coli UC 1894; 24 H) | MIC (Escherichia coli UC 1894; 48 H) | MIC ([7]; 24 Hr.) | MIC ([7]; 48 Hr.)
0.3 µg/mL: MIC (Escherichia coli DC 0; DC0, 24 h, 24 H) | MIC (Escherichia coli DC 0; DC0, 48 h, 48 H) | MIC (Escherichia coli DC 2; 48 H) | M.I.C. [5] | MIC ([5]; 48 h) | MIC (Providencia Du 48; 24 Hr.) | MIC (Providencia Du 48; 48 Hr.)
0.06 µg/mL: M.I.C. [9]
5 µg/mL: MIC ([13]; 24 h) | MIC ([13]; 48 h)
0.15 µg/mL: MIC (Escherichia coli 0 78; [15]) | MIC (Escherichia coli 0 78; [16]) | MIC (Escherichia coli 1507 E; 24 h) | MIC (Escherichia coli 1507 E; 48 h) | MIC (Escherichia coli DC 2; 24 H) | MIC (Escherichia coli T E M; 24 h) | MIC (Escherichia coli T E M; 48 h) | MIC ([11]; 24 h) | MIC ([11]; 48 h)
0.08 µg/mL: MIC ([10]; 24 H) | MIC ([10]; 48 H) | MIC ([6]; 24 h) | MIC ([6]; 48 h) | MIC ([12]; 24 h) | MIC ([12]; 48 h)
1.2 µg/mL: MIC ([14]; 48 H) | MIC ([9]; 48 h)

CC(C)(ON=C(C(=O)NC1C(=O)N(S(=O)(=O)O)C1CF)c1csc(N)n1)C(=O)O (mixture of isomers) [Example 6, Racemate of syn isomer of cis 4-fluoromethyl-3-[2-(2-amino-4-thiazolyl)-2-(1-carboxy-1-methyl-ethoxy)-imino-acetamido]-2-oxo-azetidine-1-sulfonic acid]
0.6 µg/mL: MIC (Escherichia coli 1507 E; 24 h) | MIC (Escherichia coli 1507 E; 48 h) | MIC (Escherichia coli DC 0; DC0, 24 h, 24 H) | MIC (Escherichia coli DC 0; DC0, 48 h, 48 H) | MIC (Escherichia coli T E M; 24 h) | MIC (Escherichia coli T E M; 48 h) | MIC ([5]; 24 h) | MIC ([5]; 48 h) | MIC ([13]; 24 h) | MIC ([13]; 48 h) | MIC ([14]; 48 H) | MIC ([12]; 24 h) | MIC ([12]; 48 h)
≤ 0.04 µg/mL: MIC ([6]; 24 h) | MIC ([6]; 48 h) | MIC ([7]; 24 Hr.) | MIC ([7]; 48 Hr.)
0.08 µg/mL: MIC (Escherichia coli UC 1894; 24 H) | MIC (Escherichia coli UC 1894; 48 H)
0.3 µg/mL: MIC ([10]; 24 H) | MIC ([10]; 48 H) | MIC (Escherichia coli 0 78; [15]) | MIC (Escherichia coli 0 78; [16]) | MIC (Escherichia coli DC 2; 24 H) | MIC (Escherichia coli DC 2; 48 H) | MIC ([11]; 24 h) | MIC ([11]; 48 h) | MIC ([14]; 24 H) | MIC ([9]; 24 h) | MIC ([9]; 48 h)
0.15 µg/mL: MIC (Providencia Du 48; 24 Hr.) | MIC (Providencia Du 48; 48 Hr.)

Nc1nc(C(=NO)C(=O)NC2C(=O)N(S(=O)(=O)O)C2CCl)cs1 (mixture of isomers) [Example 4, Racemate of syn isomer of cis 4-chloromethyl-3-[2-(2-amino-4-thiazolyl)-2-hydroxyimino-acetamido]-2-oxo-azetidine-1-sulfonic acid]
1.2 µg/mL: MIC ([6]; 48 h) | MIC (Providencia Du 48; 48 Hr.) | MIC ([8]; 24 Hr.)
0.6 µg/mL: MIC ([1]; 24 Hr.) | MIC ([1]; 48 Hr.) | MIC ([2]; 24 Hr.) | MIC ([2]; 48 Hr.) | MIC ([3]; 24 Hr.) | MIC ([3]; 48 Hr.) | MIC ([6]; 24 h) | MIC ([7]; 24 Hr.) | MIC ([7]; 48 Hr.) | MIC (Providencia Du 48; 24 Hr.)
5 µg/mL: MIC ([5]; 24 h) | MIC ([5]; 48 h) | MIC ([9]; 24 h) | MIC ([9]; 48 h)
2.5 µg/mL: MIC ([4]; 24 Hr.) | MIC ([4]; 48 Hr.) | MIC ([8]; 48 Hr.)
